From patent US20110021531A1, “OXAZOLE DERIVATIVES USEFUL AS INHIBITORS OF FAAH” (priority 2009, published 2011) come the findings set out here.

Molecules are shown by their SMILES.

Test [1] deals with T1, rat FAAH (Fatty Acid Amide Hydrolase) (Rattus norvegicus, UniProt P97612).
T1 sequence (P97612 1-579): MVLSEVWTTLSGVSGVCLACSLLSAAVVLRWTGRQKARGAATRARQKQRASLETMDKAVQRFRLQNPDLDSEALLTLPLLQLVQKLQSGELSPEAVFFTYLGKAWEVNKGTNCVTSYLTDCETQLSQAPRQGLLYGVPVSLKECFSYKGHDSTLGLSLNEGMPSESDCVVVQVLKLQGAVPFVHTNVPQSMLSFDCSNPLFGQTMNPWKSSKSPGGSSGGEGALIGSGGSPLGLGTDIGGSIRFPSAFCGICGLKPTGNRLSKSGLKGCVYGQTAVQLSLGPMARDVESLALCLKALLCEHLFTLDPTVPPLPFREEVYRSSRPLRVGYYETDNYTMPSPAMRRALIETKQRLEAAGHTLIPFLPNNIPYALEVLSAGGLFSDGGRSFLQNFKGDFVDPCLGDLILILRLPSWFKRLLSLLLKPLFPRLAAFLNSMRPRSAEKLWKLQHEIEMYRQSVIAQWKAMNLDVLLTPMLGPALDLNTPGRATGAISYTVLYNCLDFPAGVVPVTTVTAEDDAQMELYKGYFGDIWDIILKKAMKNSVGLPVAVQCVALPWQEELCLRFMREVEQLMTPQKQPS
The test is described as follows: FAAH whole cell assay, CHO cells expressing rat FAAH. It is filed as cell-based. From the text: (§1) To assist in assay development stable cell lines for human, murine and rat full length FAAH were developed. Human FAAH cDNA (Accession No: NM_001441.1) was purchased from Origene (Rockville, Md.). The full length FAAH was subcloned into the mammalian expression vector, pcDEF.neo, using XbaI and EcoRI restriction sites and used for stable cell line generation.
(§2) Murine (accession number NM_010173) and Rat FAAH (accession number NM_024132) was amplified by reverse transcriptase polymerase chain reaction (RT-PCR) from brain cDNA (BD Biosciences, San Jose, Calif.) using primers 1 and 2 or primers 1 and 3 respectively (see Table). The resulting PCR product was ligated into pCR4 TOPO and DNA sequence confirmed. The full length murine FAAH was subcloned into the mammalian expression vector, pcDEFneo using either EcoRI (murine) or KpnI and EcoRI (rat) restriction sites. Chinese hamster ovary cells (CHO) were transfected following manufacturers protocol (AMAXA). Forty eight hours post transfection, cells were trypsinized and transferred to 96 well plates in Iscove's DMEM media supplemented with 2 mM Glutamine, 10% fetal calf serum, 1 mg/ml geneticin and HT Supplement (0.1 mM sodium hypoxanthine, 0.016 mM thymidine) in order to isolate single clones. Following selection in geneticin, individual clones were selected and FAAH activity was assessed using a whole cell fluorescent anandamide assay, modified from Ramarao et al (2005). Following removal of tissue culture media cells were dislodged following addition of Cellstripper (Mediatech, Inc. Manassas, Va.) and transferred to 96 well black clear bottom assay plate, centrifuged at 1,000 rpm for 3 mins and media removed and replaced with assay buffer (50 mM Iris pH8.0, 1 mM EDTA, 0.1% fatty acid free BSA). The reaction was initiated by addition of fluorescent substrate, AMC Arachidonoyl Amide (Cayman Chemical, Ann Arbor, Mich.) to 1 μM and reaction allowed to proceed for 2 hours at room temperature. Release of fluorescence was monitored in a CytoFluor Multiplate Reader. Cells expressing the highest amount of FAAH activity were selected for study with FAAH inhibitors.
(§3) (American Radiolabeled Chemicals; 1 mCi/ml) with FAAH (Life Sciences (1995), 56, 1999-2005 and Journal of Pharmacology and Experimented Therapeutics (1997), 283, 729-734), Analytical. Biochemistry (2003), 318, 270-5. In addition, routine assays were performed monitoring hydrolysis of arachidonyl-7-amino-4-methylcoumarin amide (AAMCA) by following increase in fluorescence upon release of 7-amino 4-methyl coumarin (λEX=355 nm, (λEM=460 nm). Analytical. Biochemistry (2005). 343, 143-51
(§4) Assays are performed on either cell lysate or microsome fractions prepared as described or in whole cell format employing either the fluorescent substrate AAMCA (Cayman chemical, Ann Arbor, Mich.,) or ^3H-anandmaide ([ETHANOLAMINE-1-3H]American Radiolabeled Chemicals; 1 mCi/ml). The cell lysate or microsome assay is performed in Costar black wall, clear bottom plates by adding FAAH_CF10 (whole cell, cell lysate or microsome) in assay buffer (50 mM Phosphate, pH 8.0, 1 mM EDTA, 200 mM KCl, 0.2% glycerol, 0.1% fatty acid free BSA) to each well, followed by either DMSO or compound and allowed to incubate at 22-25° C. for fifteen minutes. AAMCA substrate was used to achieve a final concentration of 1 μM and reaction allowed to proceed at room temperature for 1-3 hours. Fluorescent release as a measure of FAAH activity was monitored by reading the plate in a CytoFluor Multiplate Reader (Ex: […]). Whole cell assay is conducted with cells harvested after rinsing tissue culture flasks three times with Ca^++Mg^++ free PBS, incubating for 10 min in Enzyme free dissociation media and centrifuging for 5 minutes at 1,000 rpm in table top centrifuge. Cells are resuspended in assay buffer at desired cell number in (4×10^4 cells/assay in 96-well format; 1×10^4 cells/assay in 384-well format) and assayed as described.

Test [2] has as its target T2, human FAAH (Fatty Acid Amide Hydrolase) (Homo sapiens, UniProt O00519).
T2 construct: The full length FAAH was subcloned into the mammalian expression vector, pcDEF.neo
T2 sequence (O00519 1-579): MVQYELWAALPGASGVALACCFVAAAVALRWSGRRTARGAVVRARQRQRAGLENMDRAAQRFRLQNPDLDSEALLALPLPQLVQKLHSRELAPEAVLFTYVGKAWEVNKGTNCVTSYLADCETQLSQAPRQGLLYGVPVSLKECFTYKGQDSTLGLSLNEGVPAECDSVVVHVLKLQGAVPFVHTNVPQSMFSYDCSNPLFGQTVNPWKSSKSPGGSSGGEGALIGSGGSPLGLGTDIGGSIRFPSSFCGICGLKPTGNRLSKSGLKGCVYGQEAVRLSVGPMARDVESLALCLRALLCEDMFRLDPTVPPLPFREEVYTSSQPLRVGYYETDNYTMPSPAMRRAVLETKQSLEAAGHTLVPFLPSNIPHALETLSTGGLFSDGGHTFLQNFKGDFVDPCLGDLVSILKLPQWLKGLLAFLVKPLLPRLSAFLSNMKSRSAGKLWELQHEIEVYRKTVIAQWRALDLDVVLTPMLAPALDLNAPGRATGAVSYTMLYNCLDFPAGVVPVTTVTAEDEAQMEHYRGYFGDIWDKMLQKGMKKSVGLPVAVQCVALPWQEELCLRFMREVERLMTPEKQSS
As to the kind of experiment: FAAH enzyme assay on lysate of CHO cells expressing human FAAH. It is filed as biochemical.
Excerpt: as §1
CHO cells expressing FAAH were used to prepare either crude cell lysate or microsome fractions. To harvest cells, tissue culture media was decanted, the monolayer washed three times with Ca^++Mg^++ free PBS and cells recovered after […] in enzyme free dissociation media (Millipore Corp, Billerica, Mass.). Cells were collected by centrifuging at 2000 rpm for 15 min. and the cell pellet re-suspended with 50 mM HEPES (pH 7.4) containing 1 mM EDTA and the protease inhibitors aprotinin (1 mg/ml) and leupeptin (100 μM). The suspension was sonicated at 4° C. and the cell lysate recovered after centrifuging at 12,000×g (14,600 rpm, SS34 rotor) for 20 min at 4° C. to form a crude pellet of cell debris, nuclei, peroxisomes, lysosomes, and mitochondria; the supernatant or cell lysate was used for FAAH enzyme assay. In some cases, microsomes fractions enriched in FAAH were prepared by centrifuging the cell lysate further at 27,000 rpm (100,000×g) in SW28 rotor for 50 minutes at 4° C. The pellet containing FAAH-enriched microsomes was re-suspend in 50 mM HEPES, (pH 7.4) 1 mM EDTA, and any remaining DNA sheared by passage of material through a 23 gauge needle and aliquots of enzyme were store at −80° C. prior to use.
as §3, §4
Alternatively, assays are performed using anandamide [ethanolamine 1-^3H] (specific activity of 10 Ci/mmol) diluted with cold anandamide to achieve a final assay concentration of 1 μM anandamide (˜50,000 cpm). Enzyme (CHO cell lysate, brain or liver homogenate) is incubated in assay buffer (50 mM Phosphate, pH 8.0, 1 mM EDTA, 200 mM KCl, 0.2% glycerol, 0.1% fatty acid free BSA) with inhibitor at 25° C. for 30 minutes. The reaction was terminated by addition of 2 volumes of chloroform:methanol (1:1) and mixed by vortexing. […]

Test [3] addresses T2, human FAAH (Fatty Acid Amide Hydrolase). As to the kind of experiment: FAAH whole cell assay, CHO cells expressing human FAAH. In kind it is cell-based.
Excerpt: as §1, §2, §3, §4

With `CS(=O)(=O)c1ccc(-c2nc(-c3ccc(F)cc3)oc2Sc2ccc(Cl)cn2)cc1` [Ex 78, 5-Chloro-2-({2-(4-fluorophenyl)-4-[4-(methylsulfonyl)phenyl]-1,3-oxazol-5-yl}sulfanyl)pyridine], the concentration for half-maximal inhibition (IC50) (in general, the point on the concentration scale where inhibition reaches its midpoint) came out at 39 nM in test [1], 28 nM in test [2] and 69 nM in test [3].

As to `COc1ccc(Sc2oc(-c3ccc(F)cc3)nc2-c2ccc(C(C)(C)O)nc2)c(F)c1` [Ex 65], the results for the IC50 in test [1], in test [2] and in test [3] were 21 nM, 27 nM and 29 nM, respectively.

On to `CC(C)(O)c1ccc(-c2nc(-c3ccc(F)cc3)oc2Sc2ncc(Cl)cn2)cn1` [Ex 20], for which the IC50 in test [1] came to 29 nM; in test [2], 43 nM; in test [3] it was 59 nM.

As for `N#CC1(c2ccc(-c3nc(-c4ccc(F)cc4)oc3Sc3ccc(Cl)cn3)cn2)CC(O)C1` (stereo not drawn) [Ex 122, 1-(5-{5-[(5-Chloropyridin-2-yl)sulfanyl]-2-(4-fluorophenyl)-1,3-oxazol-4-yl}pyridin-2-yl)-3-hydroxycyclobutanecarbonitrile], the IC50 in test [1] came to 146 nM; in test [2], 161 nM; in test [3], 474 nM.

For the compound `CC(C)(O)c1ccc(-c2nc(-c3ccc(F)cc3)oc2Sc2ccc(Cl)cn2)nn1` [Ex 96, 2-(6-{5-[(5-Chloropyridin-2-yl)sulfanyl]-2-(4-fluorophenyl)-1,3-oxazol-4-yl}pyridazin-3-yl)propan-2-ol], the IC50 in test [1] came out at 63 nM; in test [2], 17 nM; in test [3], 133 nM.

`CC(C)(O)c1ccc(-c2nc(-c3ccc(F)cc3)oc2Sc2ccc(Cl)cn2)cn1` [Ex 12, 2-{5-[5-[(5-Chloropyridin-2-yl)thio]-2-(4-fluorophenyl)-1,3-oxazol-4-yl]pyridin-2-yl}propan-2-ol]: the half-maximal inhibitory concentration (IC50) amounted to 13 nM in test [1], 19 nM in test [2] and 25 nM in test [3].

In the case of `CS(=O)(=O)c1ccc(-c2nc(-c3ccc(F)cc3)oc2Sc2ccc(Cl)cn2)cn1` [Ex 102, 5-Chloro-2-({2-(4-fluorophenyl)-4-[6-(methylsulfonyl)pyridin-3-yl]-1,3-oxazol-5-yl}sulfanyl)pyridine], the IC50 worked out at 17 nM in test [1], 12 nM in test [2] and 35 nM in test [3].
